Here are results for two compounds from publication PMC8788879 (Nuclear medicine and biology, 2020).

This experiment addresses Aβ1–40 fibrils (amyloid-β) (Homo sapiens, UniProt P05067). It counts as binding.

The structures appear in SMILES notation.

Sequence of Aβ1–40 fibrils (amyloid-β) (P05067 672-711): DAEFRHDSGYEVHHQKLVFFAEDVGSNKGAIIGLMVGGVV

The compound `COc1cc(/C=C/c2cc(C)c(O)c(C)c2)ccc1/C=C/c1ccc(C(=O)O)cc1` [compound 1, 4-((E)-4-((E)-4-hydroxy-3,5-dimethylstyryl)-2-methoxystyryl) benzoic acid] showed an inhibitory constant (Ki) of 8.6 nM. This counts as single-digit nanomolar.
The figure for `COc1cc(/C=C/c2ccc(O)cc2)ccc1/C=C/c1ccc(O)cc1` [compound 2, methoxy-X04] is 23.6 nM.
